Consider two compounds from ChEMBL document CHEMBL3991601, “The target landscape of clinical kinase drugs” (Science, 2017).

Each structure is given as a SMILES string. The source made the active and inactive calls. Rule as the data show it, for most assays here: actives have a measured Kd and inactives only a lower limit. Where only a bound is given, the exact number is not on record here.

For assay [1], the target named is T1, Dual specificity mitogen-activated protein kinase kinase 6 (Homo sapiens, UniProt P52564).
T1 sequence (P52564 whole entry): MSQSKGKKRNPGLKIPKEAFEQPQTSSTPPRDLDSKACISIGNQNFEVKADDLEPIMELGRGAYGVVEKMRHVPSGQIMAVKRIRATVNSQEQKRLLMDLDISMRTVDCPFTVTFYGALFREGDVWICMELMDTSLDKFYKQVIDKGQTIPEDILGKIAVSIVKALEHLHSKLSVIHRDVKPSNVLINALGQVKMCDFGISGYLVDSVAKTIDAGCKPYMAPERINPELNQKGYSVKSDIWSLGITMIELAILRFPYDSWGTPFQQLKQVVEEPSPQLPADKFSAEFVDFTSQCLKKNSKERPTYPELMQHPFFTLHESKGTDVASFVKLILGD

For assay [2], the target named is Cyclin-dependent kinase 3 (Homo sapiens, UniProt Q00526).
For assay [3], the target named is Casein kinase I isoform alpha (Homo sapiens, UniProt P48729).
For assay [4], the target named is Ribosomal protein S6 kinase alpha-6 (Homo sapiens, UniProt Q9UK32).
The target of assay [5] is AP2-associated protein kinase 1 (Homo sapiens, UniProt Q2M2I8).
In assay [6] the target is T2, Serine/threonine-protein kinase ICK (Homo sapiens, UniProt Q9UPZ9).
T2 sequence (Q9UPZ9 whole entry): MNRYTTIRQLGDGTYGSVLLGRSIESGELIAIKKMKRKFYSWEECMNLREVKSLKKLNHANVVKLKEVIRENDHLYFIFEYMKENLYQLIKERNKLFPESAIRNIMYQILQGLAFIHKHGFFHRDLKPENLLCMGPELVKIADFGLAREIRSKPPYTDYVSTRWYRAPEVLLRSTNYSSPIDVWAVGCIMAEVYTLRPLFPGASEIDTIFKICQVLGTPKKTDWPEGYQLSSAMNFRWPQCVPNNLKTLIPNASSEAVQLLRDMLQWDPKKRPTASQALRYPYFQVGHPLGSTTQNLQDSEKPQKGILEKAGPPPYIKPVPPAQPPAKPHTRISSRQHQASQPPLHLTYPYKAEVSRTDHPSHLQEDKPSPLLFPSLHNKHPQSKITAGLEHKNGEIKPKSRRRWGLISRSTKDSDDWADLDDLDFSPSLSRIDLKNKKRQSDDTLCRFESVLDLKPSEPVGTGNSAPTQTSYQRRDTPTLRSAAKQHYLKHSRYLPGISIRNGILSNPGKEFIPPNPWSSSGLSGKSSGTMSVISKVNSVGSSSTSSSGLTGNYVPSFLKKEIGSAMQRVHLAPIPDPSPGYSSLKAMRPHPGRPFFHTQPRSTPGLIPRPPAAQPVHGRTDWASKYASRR

Assay [7] deals with T3, Uncharacterized protein FLJ45252 (Homo sapiens, UniProt Q6ZSR9).
T3 sequence (Q6ZSR9 whole entry): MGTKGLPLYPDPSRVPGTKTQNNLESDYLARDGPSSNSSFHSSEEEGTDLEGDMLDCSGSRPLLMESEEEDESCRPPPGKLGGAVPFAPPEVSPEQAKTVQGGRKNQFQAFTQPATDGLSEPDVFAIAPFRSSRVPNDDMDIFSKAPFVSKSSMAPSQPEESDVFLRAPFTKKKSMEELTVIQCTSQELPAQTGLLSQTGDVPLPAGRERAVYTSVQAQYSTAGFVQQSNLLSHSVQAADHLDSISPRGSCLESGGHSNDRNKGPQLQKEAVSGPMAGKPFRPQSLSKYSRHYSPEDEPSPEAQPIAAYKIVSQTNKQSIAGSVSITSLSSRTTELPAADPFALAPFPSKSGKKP
The note with it: read-out: Kd apparent; k-562, colo 205, sk-n-be(2) and mv-4-11.

The target in assay [8] is Deoxycytidine kinase (Homo sapiens, UniProt P27707).
The target in assay [9] is T4, cGMP-dependent protein kinase 1 (Homo sapiens, UniProt Q13976).
T4 sequence (Q13976 whole entry): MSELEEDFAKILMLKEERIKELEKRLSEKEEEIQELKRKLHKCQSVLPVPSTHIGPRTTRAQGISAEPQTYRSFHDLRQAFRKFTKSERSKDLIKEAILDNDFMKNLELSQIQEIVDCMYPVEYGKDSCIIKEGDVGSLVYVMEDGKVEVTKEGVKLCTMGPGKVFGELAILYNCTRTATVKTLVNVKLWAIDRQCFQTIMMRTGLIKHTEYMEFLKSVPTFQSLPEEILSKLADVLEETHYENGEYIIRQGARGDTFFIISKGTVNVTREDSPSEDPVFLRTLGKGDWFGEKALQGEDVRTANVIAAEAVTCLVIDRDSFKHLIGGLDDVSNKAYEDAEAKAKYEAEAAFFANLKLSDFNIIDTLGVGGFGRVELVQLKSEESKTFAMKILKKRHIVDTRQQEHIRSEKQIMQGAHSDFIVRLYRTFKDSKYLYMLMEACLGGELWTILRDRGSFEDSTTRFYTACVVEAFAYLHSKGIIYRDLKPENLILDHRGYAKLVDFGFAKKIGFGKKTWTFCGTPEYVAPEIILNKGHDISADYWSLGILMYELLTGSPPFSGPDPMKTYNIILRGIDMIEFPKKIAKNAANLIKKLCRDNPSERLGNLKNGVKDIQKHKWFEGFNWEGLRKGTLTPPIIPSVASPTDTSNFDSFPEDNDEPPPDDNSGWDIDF

Assay [10] has as its target Macrophage-stimulating protein receptor (Homo sapiens, UniProt Q04912).
The target of assay [11] is T5, Interleukin-1 receptor-associated kinase 4 (Homo sapiens, UniProt Q9NWZ3).
T5 sequence (Q9NWZ3 whole entry): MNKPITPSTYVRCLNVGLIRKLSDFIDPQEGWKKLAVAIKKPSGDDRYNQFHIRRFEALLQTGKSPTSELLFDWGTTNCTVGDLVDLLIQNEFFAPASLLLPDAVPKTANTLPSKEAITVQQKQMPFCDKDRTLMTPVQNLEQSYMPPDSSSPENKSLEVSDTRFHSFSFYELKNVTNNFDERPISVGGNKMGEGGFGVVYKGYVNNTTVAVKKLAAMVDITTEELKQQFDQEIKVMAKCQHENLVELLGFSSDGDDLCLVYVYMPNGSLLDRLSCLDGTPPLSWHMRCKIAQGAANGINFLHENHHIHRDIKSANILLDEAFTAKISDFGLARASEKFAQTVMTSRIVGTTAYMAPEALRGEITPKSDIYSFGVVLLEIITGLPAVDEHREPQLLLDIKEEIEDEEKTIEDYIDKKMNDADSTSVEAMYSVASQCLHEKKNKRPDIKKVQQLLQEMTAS

The target of assay [12] is Mitotic checkpoint serine/threonine-protein kinase BUB1 (Homo sapiens, UniProt O43683).
Also: in the data inactive means no Kd found up to 30 µM.

Sequence of Cyclin-dependent kinase 3 (Q00526 whole entry, canonical isoform): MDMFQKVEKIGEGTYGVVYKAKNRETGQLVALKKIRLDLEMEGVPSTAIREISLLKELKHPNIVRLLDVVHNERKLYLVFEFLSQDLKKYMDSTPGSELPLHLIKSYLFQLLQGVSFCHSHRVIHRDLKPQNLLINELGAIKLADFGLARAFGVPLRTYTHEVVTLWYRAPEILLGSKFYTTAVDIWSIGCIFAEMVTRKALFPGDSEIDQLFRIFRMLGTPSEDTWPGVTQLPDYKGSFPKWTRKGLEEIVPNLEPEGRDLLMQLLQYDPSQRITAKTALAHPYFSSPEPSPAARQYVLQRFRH
Sequence of Deoxycytidine kinase (P27707 whole entry): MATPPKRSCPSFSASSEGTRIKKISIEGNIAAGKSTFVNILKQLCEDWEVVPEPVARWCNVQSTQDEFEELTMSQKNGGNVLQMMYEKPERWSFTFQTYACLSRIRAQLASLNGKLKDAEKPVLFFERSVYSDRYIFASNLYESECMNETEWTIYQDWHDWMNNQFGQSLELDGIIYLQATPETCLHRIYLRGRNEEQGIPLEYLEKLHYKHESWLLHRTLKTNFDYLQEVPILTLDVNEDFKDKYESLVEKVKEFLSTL
Sequence of Macrophage-stimulating protein receptor (Q04912 25-304 limits assumed): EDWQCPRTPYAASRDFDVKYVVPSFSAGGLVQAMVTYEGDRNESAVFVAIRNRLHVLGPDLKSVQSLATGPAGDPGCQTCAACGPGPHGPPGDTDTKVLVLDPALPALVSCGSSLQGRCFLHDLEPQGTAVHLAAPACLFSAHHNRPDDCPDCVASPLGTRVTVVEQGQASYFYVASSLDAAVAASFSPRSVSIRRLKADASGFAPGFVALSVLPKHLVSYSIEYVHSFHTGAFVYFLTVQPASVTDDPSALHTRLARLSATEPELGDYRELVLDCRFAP
Sequence of Macrophage-stimulating protein receptor (Q04912 310-1400 limits assumed): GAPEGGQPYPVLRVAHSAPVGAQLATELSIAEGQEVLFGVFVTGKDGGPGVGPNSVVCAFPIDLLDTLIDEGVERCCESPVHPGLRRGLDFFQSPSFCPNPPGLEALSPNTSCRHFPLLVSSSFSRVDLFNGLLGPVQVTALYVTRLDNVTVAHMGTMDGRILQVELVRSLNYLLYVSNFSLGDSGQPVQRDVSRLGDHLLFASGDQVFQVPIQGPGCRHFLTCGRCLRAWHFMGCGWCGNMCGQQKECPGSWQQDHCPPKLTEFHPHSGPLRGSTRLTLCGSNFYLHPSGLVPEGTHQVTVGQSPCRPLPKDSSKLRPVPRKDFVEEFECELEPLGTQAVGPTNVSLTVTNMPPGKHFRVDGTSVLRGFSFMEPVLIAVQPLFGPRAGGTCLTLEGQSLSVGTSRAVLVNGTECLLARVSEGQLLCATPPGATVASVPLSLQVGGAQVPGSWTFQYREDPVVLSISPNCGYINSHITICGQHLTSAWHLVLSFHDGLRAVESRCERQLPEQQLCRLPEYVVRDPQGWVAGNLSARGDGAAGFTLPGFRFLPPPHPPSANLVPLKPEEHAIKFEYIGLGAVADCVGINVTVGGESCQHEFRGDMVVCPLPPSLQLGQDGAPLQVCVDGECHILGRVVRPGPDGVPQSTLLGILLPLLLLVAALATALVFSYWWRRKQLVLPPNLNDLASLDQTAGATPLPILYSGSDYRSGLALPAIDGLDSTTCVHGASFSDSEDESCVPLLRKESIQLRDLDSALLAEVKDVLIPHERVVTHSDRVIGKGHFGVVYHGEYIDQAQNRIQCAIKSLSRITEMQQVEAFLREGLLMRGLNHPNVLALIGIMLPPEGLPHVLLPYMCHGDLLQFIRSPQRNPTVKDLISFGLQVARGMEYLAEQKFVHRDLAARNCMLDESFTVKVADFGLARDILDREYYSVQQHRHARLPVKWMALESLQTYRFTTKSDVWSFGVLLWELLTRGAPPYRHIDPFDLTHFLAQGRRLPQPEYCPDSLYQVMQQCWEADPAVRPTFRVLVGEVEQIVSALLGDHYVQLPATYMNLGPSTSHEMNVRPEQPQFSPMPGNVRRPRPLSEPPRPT
Sequence of AP2-associated protein kinase 1 (Q2M2I8 whole entry): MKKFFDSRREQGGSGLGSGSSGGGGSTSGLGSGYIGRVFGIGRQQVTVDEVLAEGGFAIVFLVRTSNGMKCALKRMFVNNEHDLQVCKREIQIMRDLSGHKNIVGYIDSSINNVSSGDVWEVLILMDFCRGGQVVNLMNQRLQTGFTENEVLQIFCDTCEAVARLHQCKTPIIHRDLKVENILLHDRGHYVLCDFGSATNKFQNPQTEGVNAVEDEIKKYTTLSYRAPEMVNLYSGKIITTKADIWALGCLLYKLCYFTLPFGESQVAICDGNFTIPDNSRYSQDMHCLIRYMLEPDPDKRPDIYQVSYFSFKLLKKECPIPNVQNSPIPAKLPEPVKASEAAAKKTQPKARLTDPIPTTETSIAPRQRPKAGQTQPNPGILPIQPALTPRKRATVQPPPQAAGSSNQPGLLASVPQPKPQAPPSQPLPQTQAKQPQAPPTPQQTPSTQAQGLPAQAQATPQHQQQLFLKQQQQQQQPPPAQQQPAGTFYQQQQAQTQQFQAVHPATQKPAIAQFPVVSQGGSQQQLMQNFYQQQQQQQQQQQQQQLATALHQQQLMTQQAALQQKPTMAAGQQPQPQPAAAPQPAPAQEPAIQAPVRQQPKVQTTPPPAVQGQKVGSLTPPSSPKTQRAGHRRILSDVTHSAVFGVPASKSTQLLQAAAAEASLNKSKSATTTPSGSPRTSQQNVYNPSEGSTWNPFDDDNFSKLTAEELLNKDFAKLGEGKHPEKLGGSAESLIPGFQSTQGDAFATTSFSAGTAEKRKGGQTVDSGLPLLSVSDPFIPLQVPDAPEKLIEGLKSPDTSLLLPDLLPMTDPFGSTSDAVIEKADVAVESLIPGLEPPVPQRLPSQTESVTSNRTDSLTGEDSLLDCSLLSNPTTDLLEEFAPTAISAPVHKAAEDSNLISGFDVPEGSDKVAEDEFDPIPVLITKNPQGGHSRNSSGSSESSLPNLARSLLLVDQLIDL
Sequence of Casein kinase I isoform alpha (P48729 whole entry, canonical isoform): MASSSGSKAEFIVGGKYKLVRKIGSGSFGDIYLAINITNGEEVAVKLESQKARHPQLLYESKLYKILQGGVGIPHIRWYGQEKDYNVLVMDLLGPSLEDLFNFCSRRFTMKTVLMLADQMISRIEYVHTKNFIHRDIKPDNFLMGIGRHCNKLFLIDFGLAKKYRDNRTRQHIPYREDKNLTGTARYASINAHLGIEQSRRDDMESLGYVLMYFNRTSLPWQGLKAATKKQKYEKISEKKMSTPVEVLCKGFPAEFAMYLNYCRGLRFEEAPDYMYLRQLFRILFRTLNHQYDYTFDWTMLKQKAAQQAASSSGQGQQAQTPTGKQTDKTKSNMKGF
Sequence of Mitotic checkpoint serine/threonine-protein kinase BUB1 (O43683 whole entry): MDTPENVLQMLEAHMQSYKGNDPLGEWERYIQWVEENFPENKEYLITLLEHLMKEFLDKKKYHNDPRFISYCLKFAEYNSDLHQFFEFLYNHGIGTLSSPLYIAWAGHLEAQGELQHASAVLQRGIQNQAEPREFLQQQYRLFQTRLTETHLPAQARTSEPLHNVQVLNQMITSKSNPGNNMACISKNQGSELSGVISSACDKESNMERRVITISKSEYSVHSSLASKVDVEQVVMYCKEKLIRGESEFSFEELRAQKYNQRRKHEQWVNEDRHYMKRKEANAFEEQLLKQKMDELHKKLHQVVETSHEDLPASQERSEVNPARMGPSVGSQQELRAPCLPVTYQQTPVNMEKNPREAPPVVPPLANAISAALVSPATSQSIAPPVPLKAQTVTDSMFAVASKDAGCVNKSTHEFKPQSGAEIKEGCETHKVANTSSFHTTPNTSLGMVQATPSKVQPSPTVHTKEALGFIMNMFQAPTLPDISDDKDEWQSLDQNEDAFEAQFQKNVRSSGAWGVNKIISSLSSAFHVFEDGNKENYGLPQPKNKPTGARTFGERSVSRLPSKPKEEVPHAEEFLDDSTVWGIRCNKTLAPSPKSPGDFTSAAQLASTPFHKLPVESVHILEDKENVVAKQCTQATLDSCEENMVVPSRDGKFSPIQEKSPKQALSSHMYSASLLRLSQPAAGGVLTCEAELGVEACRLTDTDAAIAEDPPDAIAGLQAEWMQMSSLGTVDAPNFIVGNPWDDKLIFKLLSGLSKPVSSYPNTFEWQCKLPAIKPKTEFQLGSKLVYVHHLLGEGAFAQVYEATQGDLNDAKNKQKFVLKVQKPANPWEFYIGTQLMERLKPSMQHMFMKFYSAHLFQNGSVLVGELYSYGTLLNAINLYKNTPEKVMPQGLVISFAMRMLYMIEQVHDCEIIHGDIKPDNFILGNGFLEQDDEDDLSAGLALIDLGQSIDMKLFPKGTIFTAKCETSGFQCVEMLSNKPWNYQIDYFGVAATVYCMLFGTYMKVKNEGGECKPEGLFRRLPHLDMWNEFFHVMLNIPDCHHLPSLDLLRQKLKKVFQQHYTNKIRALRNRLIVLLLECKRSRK

Regarding `CC[C@@](C)(Nc1ccnc(-c2c[nH]c3ncccc23)n1)C(=O)NCC(F)(F)F` [DECERNOTINIB], the Kd in assay [1] is > 30 µM (inactive); in [2] it was > 30 µM (inactive); in [3] it was > 30 µM (inactive); in assay [4], > 30 µM (inactive); in assay [5] it was 4.25 µM (active); in [6] it was > 30 µM (inactive). Besides, the Kd was 2.64 µM (active) in assay [7]; > 30 µM (inactive) in assay [8]; > 30 µM (inactive) in assay [9]; > 30 µM (inactive) in [10]; > 30 µM (inactive) in [11]; > 30 µM (inactive) in [12].

Consider `O=C(NOC[C@H](O)CO)c1ccc(F)c(F)c1Nc1ccc(I)cc1F` [MIRDAMETINIB], for which the Kd in assay [1], in assay [2], in assay [3], in assay [4], in assay [5] and in assay [6] was > 30 µM (inactive) each time. In addition, the Kd in assay [7], in assay [8], in assay [9], in assay [10], in assay [11] and in assay [12] was > 30 µM (inactive) throughout.
